A word on the EC50: it is the concentration giving half of the maximal effect.

What all share (type): cell-based
For one assay, the system named is HSV2. Put plainly: Viral qPCR assay, HSV2. As to conditions: Human alphaherpesvirus 2, 72 h, infected cells, viral genome copies by qPCR normalized to PPIA, read-out: HSV2 Cell EC50. On the procedure: (§1) MRC5 cells, Vero cells, and MeWo cells were obtained from ATCC, and were maintained at 37° C./5% CO2/90% relative humidity in Minimal Essential Medium with 10% fetal bovine serum, […] L-glutamine, 100 units/ml penicillin and 100 ug/ml streptomycin. Assay plates were prepared by dispensing compounds dissolved in DMSO into wells of 384 well collagen-coated plates using an ECHO acoustic dispenser. Each test compound was tested in a 10-point, serial 3-fold dilution. Controls included uninfected cells and infected cells treated only with DMSO. Assays were initiated by mixing selected cells, in suspension, with virus, and dispensing 50 μl/well infected cells to pre-plated compounds. Plates were incubated at 37° C./5% CO2/90% relative humidity for ˜72 hrs to permit genomic replication, and infected cells were lysed by the addition of an equal volume of lysis buffer (10 mM Tris-HCl, pH8, 50 mM KCl, 2 mM MgCl2, 0.45% NP-40, 0.45% Tween-20, and 100 µg/ml proteinase K). An aliquot of the lysate was then transferred to a 384-well PCR plate and incubated at 56° C. for 1 hour, and then at 95° C. for 10 minutes. Levels of the selected viral gene and of the cellular control, PPIA, were measured in separate 10 μl qPCR assays using TaqMan® Gene Expression Master Mix (Applied Biosystems), and an 7900HT Fast Real-Time PCR System with 384-Well Block Module. 7-point, serial 10-fold dilutions of a plasmid standard were run on each plate to generate a standard curve, and genome copies numbers were calculated by plotting experimental Ct onto linear regression of the standard curve. Viral genome copy numbers were normalized by cellular control copy number, and compound effects were normalized to the window defined by the controls. Calculated % effects were fit using a 4-parameter algorithm, and EC50 was reported.
(In general: Quantitative PCR measures a nucleic acid by following its amplification.)

The next assay relates to HSV1. As to the kind of experiment: Viral qPCR assay, HSV1. Particulars: Human alphaherpesvirus 1, 72 h, infected cells, viral genome copies by qPCR normalized to PPIA, read-out: HSV1 Cell EC50. The method, then:
as §1

A further assay concerns CMV. Put plainly: Viral qPCR assay, CMV. As to conditions: Human betaherpesvirus 5, 72 h, infected cells, viral genome copies by qPCR normalized to PPIA, read-out: CMV Cell EC50. The method, then: as §1

On to `Cc1nc2cc(-c3cncnc3)c(O[C@H]3CCN4C(=O)OC[C@@H]4C3)cc2c(=O)n1Cc1ccc(Cl)cc1` [Example 118], for which the EC50 with HSV2 turned out to be 180 nM; with HSV1, 244 nM; in the assay on CMV, 135 nM.

Consider `Cc1nc2cc(-c3ncccn3)c(O[C@H]3CCN4C(=O)OC[C@@H]4C3)cc2c(=O)n1Cc1ccc(Cl)cc1` [Example 119], for which the concentration for a half-maximal effect (EC50) in the assay on HSV2 was 921 nM; in the assay on HSV1 it was 933 nM; with CMV, 397 nM.

On to `O=C1OC[C@@H]2C[C@@H](Oc3cc4c(=O)n(Cc5ccc(Cl)cc5)c(CCN5CCOCC5)nc4cc3-c3cnn(C(F)F)c3)CCN12` [Example 120], for which the results for the EC50 in the assay with HSV2, in the assay on HSV1 and in the assay on CMV were 1020 nM, 2410 nM and 957 nM, respectively.

As for `O=C1OC[C@@H]2C[C@@H](Oc3cc4c(=O)n(Cc5ccc(Cl)cc5)c(CC5CCOCC5)nc4cc3-c3cnn(C(F)F)c3)CCN12` [Example 121], the half-maximal effective concentration (EC50) in the assay on HSV2 came to 128 nM; in the assay with HSV1, 188 nM; in the assay on CMV it was 299 nM.

As to `Cc1nc2cc(-c3cnccn3)c(O[C@H]3CCN4C(=O)OC[C@@H]4C3)cc2c(=O)n1Cc1ccc(Cl)cc1` [Example 122], the results for the EC50 in the assay on HSV2, in the assay on HSV1 and in the assay with CMV were 543 nM, 844 nM and 382 nM, respectively.

In the case of `Cc1nc2cc(-c3cnc(C(F)F)nc3)c(O[C@H]3CCN4C(=O)OC[C@@H]4C3)cc2c(=O)n1Cc1ccc(Cl)cc1` [Example 124], the EC50 in the assay with HSV2 was 120 nM; in the assay with HSV1, 198 nM; with CMV, 163 nM.

For the molecule `O=C1OC[C@@H]2C[C@@H](Oc3cc4c(=O)n(Cc5ccc(Cl)cc5)c(CN5CCOCC5)nc4cc3-c3cnn(C(F)F)c3)CCN12` [Example 125], the EC50 with HSV2 was 1280 nM; in the assay on HSV1, 3830 nM; in the assay with CMV, 4240 nM.

In the case of `O=C1OC[C@@H]2C[C@@H](Oc3cc4c(=O)n(Cc5ccc(Cl)cc5)c(OC5CCOCC5)nc4cc3-c3cnn(C(F)F)c3)CCN12` [Example 126], the EC50 with HSV2 was found to be 140 nM; with HSV1, 372 nM; in the assay with CMV, 205 nM.

Take `Cc1nc2cc(-c3cccnn3)c(O[C@H]3CCN4C(=O)OC[C@@H]4C3)cc2c(=O)n1Cc1ccc(Cl)cc1` [Example 127]: the figures for the EC50 in the assay with HSV2, in the assay with HSV1 and in the assay on CMV were 793 nM, 484 nM and 280 nM, respectively.

On to `Cc1cnc(-c2cc3nc(C)n(Cc4ccc(Cl)cc4)c(=O)c3cc2O[C@H]2CCN3C(=O)OC[C@@H]3C2)cn1` [Example 128], for which the EC50 came to 131 nM with HSV2, 217 nM with HSV1 and 114 nM with CMV.

For `O=C1OC[C@@H]2C[C@@H](Oc3cc4c(=O)n(Cc5ccc(Cl)cc5)c(CN5CCC5)nc4cc3-c3cnn(C(F)F)c3)CCN12` [Example 129], the EC50 with HSV2 came to 135 nM; with HSV1 it was 178 nM; with CMV it was 115 nM.

Take `Cc1nc2cc(-c3ccncn3)c(O[C@H]3CCN4C(=O)OC[C@@H]4C3)cc2c(=O)n1Cc1ccc(Cl)cc1` [Example 130]: the EC50 with HSV2 was 287 nM; with HSV1 it was 167 nM; in the assay with CMV, 190 nM.

With `Cc1nccc(-c2cc3nc(C)n(Cc4ccc(Cl)cc4)c(=O)c3cc2O[C@H]2CCN3C(=O)OC[C@@H]3C2)n1` [Example 131], the EC50 with HSV2 was found to be 157 nM; in the assay with HSV1, 223 nM; with CMV, 102 nM.

With `COc1cnnc(-c2cc3nc(C)n(Cc4ccc(Cl)cc4)c(=O)c3cc2O[C@H]2CCN3C(=O)OC[C@@H]3C2)c1` [Example 132], the values for the concentration giving a half-maximal response (EC50) in the assay with HSV2, with HSV1 and in the assay on CMV were 822 nM, 1470 nM and 1470 nM, respectively.

Consider `O=C1OC[C@@H]2C[C@@H](Oc3cc4c(=O)n(Cc5ccc(Cl)cc5)c(CNCC(F)(F)F)nc4cc3-c3cnn(C(F)F)c3)CCN12` [Example 133], for which the EC50 was found to be 106 nM in the assay with HSV2, 238 nM in the assay with HSV1 and 167 nM in the assay on CMV.

Regarding `O=C1OC[C@@H]2C[C@@H](Oc3cc4c(=O)n(Cc5ccc(Cl)cc5)c(OCCN5CCC5)nc4cc3-c3cnn(C(F)F)c3)CCN12` [Example 134], the concentration for a half-maximal effect (EC50) worked out at 98 nM in the assay on HSV2, 171 nM in the assay on HSV1 and 119 nM in the assay on CMV.

Turning to `O=C1OC[C@@H]2C[C@@H](Oc3cc4c(=O)n(Cc5ccc(Cl)cc5)c(OCC5CC5)nc4cc3-c3cnn(C(F)F)c3)CCN12` [Example 135], the EC50 in the assay with HSV2 turned out to be 649 nM; with HSV1 it was 799 nM; with CMV it was 939 nM.

On to `Cc1cnnc(-c2cc3nc(C)n(Cc4ccc(Cl)cc4)c(=O)c3cc2O[C@H]2CCN3C(=O)OC[C@@H]3C2)c1` [Example 136], for which the EC50 with HSV2 came to 2150 nM; with HSV1 it was 1720 nM; with CMV it was 826 nM.

For `CC(C)(O)Cc1nc2cc(-c3cnn(C(F)F)c3)c(O[C@H]3CCN4C(=O)OC[C@@H]4C3)cc2c(=O)n1Cc1ccc(Cl)cc1` [Example 140], the EC50 with HSV2 amounted to 3760 nM; with HSV1, 4310 nM; in the assay with CMV, 2660 nM.

Turning to `O=C1OC[C@@H]2C[C@@H](Oc3cc4c(=O)n(Cc5ccc(Cl)cc5)c(N5CCOCC5)nc4cc3-c3cnn(C(F)F)c3)CCN12` [Example 142], the concentration for a half-maximal effect (EC50) in the assay with HSV2 amounted to 38 nM; in the assay on HSV1, 154 nM; in the assay on CMV it was 129 nM.

As for `Cc1nc2cc(-c3cnc(N)nn3)c(O[C@H]3CCN4C(=O)OC[C@@H]4C3)cc2c(=O)n1Cc1ccc(Cl)cc1` [Example 144], the figures for the EC50 in the assay on HSV2, in the assay on HSV1 and in the assay with CMV were 319 nM, 189 nM and 137 nM, respectively.

In the case of `O=C1OC[C@@H]2C[C@@H](Oc3cc4c(=O)n(Cc5ccc(Cl)cc5)c(N5CC(O)C5)nc4cc3-c3cnn(C(F)F)c3)CCN12` [Example 145], the results for the half-maximal effective concentration (EC50) in the assay on HSV2, with HSV1 and with CMV were 112 nM, 108 nM and 101 nM, respectively.

Consider `Cc1nc2cc(-c3nn4ccnc4s3)c(O[C@H]3CCN4C(=O)OC[C@@H]4C3)cc2c(=O)n1Cc1ccc(C#N)cc1` [Example 146], for which the EC50 in the assay with HSV2 is 143 nM; with HSV1, 93 nM; in the assay on CMV, 67 nM.

For `COc1nc2cc(-c3cnn(C(F)F)c3)c(O[C@H]3CCN4C(=O)OC[C@@H]4C3)cc2c(=O)n1Cc1ccc(Cl)cc1` [Example 148], the EC50 came out at 78 nM in the assay with HSV2, 213 nM with HSV1 and 275 nM with CMV.

With `O=C1OC[C@@H]2C[C@@H](Oc3cc4c(=O)n(Cc5ccc(Cl)cc5)c(O)nc4cc3-c3cnn(C(F)F)c3)CCN12` [Example 150], the EC50 was determined as 88 nM in the assay on HSV2, 53 nM in the assay with HSV1 and 79 nM in the assay with CMV.

On to `Cc1nc2cc(-c3cnc(C(C)(C)O)nc3)c(O[C@H]3CCN4C(=O)OC[C@@H]4C3)cc2c(=O)n1Cc1ccc(Cl)cc1` [Example 154], for which the concentration for a half-maximal effect (EC50) was determined as 485 nM in the assay on HSV2, 403 nM in the assay on HSV1 and 180 nM in the assay on CMV.

Consider `Cc1nc2cc(-c3cnn(C(F)F)c3)c(O[C@H]3CCN4C(=O)OC[C@@H]4C3)cc2c(=O)n1Cc1ccc(Cl)c(CO)c1` [Example 155], for which the EC50 in the assay on HSV2 amounted to 5400 nM; in the assay with HSV1 it was 5100 nM; in the assay with CMV, 1340 nM.

As to `N[C@H](Cc1nc2cc(-c3cnn(C(F)F)c3)c(O[C@H]3CCN4C(=O)OC[C@@H]4C3)cc2c(=O)n1Cc1ccc(Cl)cc1)C(F)(F)F` [Example 156], the results for the EC50 with HSV2, with HSV1 and in the assay on CMV were 93 nM, 176 nM and 140 nM, respectively.

`N[C@@H](Cc1nc2cc(-c3cnn(C(F)F)c3)c(O[C@H]3CCN4C(=O)OC[C@@H]4C3)cc2c(=O)n1Cc1ccc(Cl)cc1)C(F)(F)F` [Example 157]: the values for the EC50 with HSV2, in the assay on HSV1 and with CMV were 81 nM, 176 nM and 170 nM, respectively.

Values taken from patent US12497405B2, “Bicyclic heterocycle compounds methods of use thereof for the treatment of herpes viruses” (Merck Sharp & Dohme LLC, priority 2019, dated 2025).
